# Article PMC12152178 (Communications Medicine, 2025)
# Read-outs that look alike come from different tables or passages of the source.
# Tests used:
# [1] = system: murine C2C12 skeletal muscle myoblast cells; assay type: cell-based; conditions: for cytotoxicity of the inhibitor alone: 100 μM, C2C12 cells, no venom; for reduction of venom-induced cytotoxicity: GA, KL and MP venoms, SMI 0–100 μM
# [2] = system: D. russelii venom-induced lethality; experiment: Preclinical efficacy: preincubation model of envenoming; assay type: in vivo, mice; conditions: for Percentage of survival: i.v., 24 h, n=5
# [3] = system: D. russelii venom-induced lethality; experiment: Preclinical efficacy: rescue experiments; assay type: in vivo, mice; conditions: 24 h, n=5
# [4] = system: human fibrinogen; experiment: Fibrinogenolytic activity of venom and its inhibition; assay type: biochemical
# [5] = system: human platelet-poor plasma, extrinsic pathway (PT); experiment: Coagulation assay: prothrombin time; assay type: biochemical
# [6] = system: D. russelii venom proteases (SVMP); experiment: Proteolytic activity of venom and its inhibition; assay type: biochemical, Daboia russelii; conditions: for IC50: read-out: IC50 (inhibition of venom proteolytic activity)
# [7] = system: human platelet-poor plasma, intrinsic pathway (aPTT); experiment: Coagulation assay: activated partial thromboplastin time; assay type: biochemical
# [8] = TN, WB and RJ venoms, SMI 0–100 μM (each)
# [9] = KA venom 2.5x LD50 preincubated with SMI 60 µg/mouse
# [10] = PB venom 2.5x LD50 preincubated with SMI 60 µg/mouse
# [11] = PB venom 2.5x LD50 preincubated with SMI 120 µg/mouse
# [12] = RJ venom 2.5x LD50 preincubated with SMI 60 µg/mouse
# [13] = RJ venom, SMI 120 µg/mouse, venom alone mean 3 min
# [14] = TN venom 2.5x LD50 preincubated with SMI 60 µg/mouse
# [15] = WB venom 2.5x LD50 preincubated with SMI 60 µg/mouse
# [16] = MP venom 2.5x LD50 i.p., SMI 120 µg/mouse (each) i.v. at 0 min
# [17] = KA and RJ venoms, SMI up to 100 µM (each)
# [18] = TN, KL, GA and MH venoms, SMI 0–100 µM, concentration-dependent
compound,measurement,setting,value
"CNC(=O)[C@@H](NC(=O)[C@H](CC(C)C)[C@H](O)C(=O)NO)C(C)(C)C [marimastat, Marimastat]",cytotoxicity of the inhibitor alone,[1],Neither inhibitor exhibited cytotoxicity
same,inhibition of venom-induced cytotoxicity,"[1]; AP venom 50 µg/ml, SMI 0–100 µM",94.89%
same,reduction of venom-induced cytotoxicity,[1],72.88–94.85%
same,inhibition of venom-induced cytotoxicity,[1]; [8],41.20–70.51%
same,Percentage of survival,[2]; [9],sufficient to neutralise the lethal effects
same,Percentage of survival,[2]; [10],failed to protect
same,Percentage of survival,[2]; [11],complete protection
same,Percentage of survival,[2]; [12],failed to protect
same,extension of survival time over venom alone,"[2]; RJ venom, SMI 120 µg/mouse",12 x
same,mean survival time of mice (onset of lethality),[2]; [13],36 min
same,Percentage of survival,[2]; [14],failed to protect
same,Percentage of survival,[2]; TN venom 2.5x LD50 preincubated with SMI 120 µg/mouse,complete protection
same,Percentage of survival,[2]; [15],failed to protect
same,% of survival,"[3]; KA venom 2.5x LD50 i.p., SMI 120 µg/mouse i.v. at 0 min",40%
same,% of survival,[3]; [16],40%
same,% of survival,"[3]; PB venom 2.5x LD50 i.p., SMI 120 µg/mouse i.v. at 0 min",ineffective
same,protection against venom-induced fibrinogenolysis,"[4]; PB, KA, KL, AP, GA and RJ venoms, SMI 100 µM",very effective
same,protection against venom-induced fibrinogenolysis,"[4]; TN, MH, MP and WB venoms, SMI 100 µM (each)",did not completely neutralise
same,inhibition of venom-induced PT alterations,[5]; [17],ineffective
same,inhibition of venom-induced PT alterations,"[5]; MP and AP venoms, SMI up to 100 µM (each)",failed to inhibit
same,inhibition of venom-induced PT alterations,"[5]; PB and WB venoms, SMI 0–100 µM",capable of inhibiting
same,reversal of venom-induced PT alterations,[5]; [18],reversed
same,IC50,[6]; GA (Goa) venom,2330 nM
same,IC50,[6]; MP venom,1510 nM
same,IC50,[6]; RJ (Rajasthan) venom,1670 nM
same,inhibition of venom-induced aPTT alterations,"[7]; AP and MP venoms, SMI 0–100 µM",capable of inhibiting
same,inhibition of venom-induced aPTT alterations,[7]; [17],ineffective
same,inhibition of venom-induced aPTT alterations,"[7]; PB and WB venoms, SMI up to 100 µM (each)",failed to inhibit
same,reversal of venom-induced aPTT alterations,[7]; [18],reversed
"CCc1c(C(=O)C(N)=O)c2c(OCC(=O)O)cccc2n1Cc1ccccc1 [varespladib, Varespladib]",cytotoxicity of the inhibitor alone,[1],Neither inhibitor exhibited cytotoxicity
same,reduction of venom-induced cytotoxicity,[1],72.88–94.85%
same,inhibition of venom-induced cytotoxicity,"[1]; MH venom 50 µg/ml, SMI 0–100 µM",88.67%
same,inhibition of venom-induced cytotoxicity,"[1]; PB venom 50 µg/ml, SMI 0–100 µM",85.32%
same,inhibition of venom-induced cytotoxicity,[1]; [8],41.20–70.51%
same,Percentage of survival,[2]; AP venom 2.5x LD50 preincubated 30 min with SMI 60 µg/mouse,failed to protect
same,Percentage of survival,[2]; AP venom 2.5x LD50 preincubated with SMI 120 µg/mouse,failing to prevent lethality
same,extension of survival time over venom alone,"[2]; KA and AP venoms (both), SMI 120 µg/mouse",13 x
same,mean survival time of mice,"[2]; KA and AP venoms (both), SMI 120 µg/mouse, venom alone mean 3 min",39 min
same,Percentage of survival,[2]; [9],failed to protect
same,Percentage of survival,[2]; KA venom 2.5x LD50 preincubated with SMI 120 µg/mouse,failing to prevent lethality
same,Percentage of survival,[2]; [10],failed to protect
same,Percentage of survival,[2]; PB venom 2.5x LD50 preincubated with SMI 90 µg/mouse,80%
same,Percentage of survival,[2]; [11],complete protection
same,Percentage of survival,[2]; [12],40%
same,Percentage of survival,[2]; RJ venom 2.5x LD50 preincubated with SMI 90 µg/mouse,60%
same,Percentage of survival,[2]; [14],failed to protect
same,Percentage of survival,[2]; TN venom 2.5x LD50 preincubated with SMI 90 µg/mouse,completely protected
same,Percentage of survival,[2]; [15],40%
same,% of survival,[3]; [16],60%
same,% of survival,"[3]; PB venom 2.5x LD50 i.p., SMI 120 µg/mouse i.v. at 30 min",complete protection
same,inhibition of venom-induced PT alterations,"[5]; TN venom, 100 µM",failed to prevent coagulopathy
same,inhibition of venom-induced aPTT alterations,"[7]; TN venom, 100 µM",failed to prevent coagulopathy
"N=C(N)c1ccc2cc(OC(=O)c3ccc(N=C(N)N)cc3)ccc2c1 [nafamostat, Nafamostat]",extension of survival time over venom alone,"[2]; RJ venom, SMI 120 µg/mouse",160 x
same,mean survival time of mice (onset of lethality),[2]; [13],480 min
same,inhibition of the protease activity of D. russelii venom,"[6]; AP venom (Fig. S1), 0–100 µM",failed to inhibit
